In US5140009A (Tap Pharmaceuticals, Inc., priority 1990, dated 1992):
Numbered stars: 1 amine (or outer) side, 2 acyl side, 3 side chain; on linkers, the order of the positions; unused ones are H or OH. Square brackets hold non-standard residues; d marks the D form. Peptide text beside a SMILES is read from it. * marks the point of attachment. Propanoyl(3-(4-F-phenyl)) = O=C(CCc1ccc(F)cc1)*; Hydrocinnamoyl(2,4-F2) = O=C(CCc1ccc(F)cc1F)*; Propanoyl(3-(4-Cl-Ph)) = O=C(CCc1ccc(Cl)cc1)*; Acetyl(2-naphthyl) = O=C(Cc1ccc2ccccc2c1)*; dPhe(4-Cl) = N[C@H](Cc1ccc(Cl)cc1)C(=O)O; Phenylacetyl(4-F) = O=C(Cc1ccc(F)cc1)*; 1Nal = N[C@@H](Cc1cccc2ccccc12)C(=O)O; d1Nal = N[C@H](Cc1cccc2ccccc12)C(=O)O; Lys(iPr) = CC(C)NCCCC[C@H](N)C(=O)O; NMeY = CN[C@@H](Cc1ccc(O)cc1)C(=O)O; hhPhe = N[C@@H](CCCc1ccccc1)C(=O)O; Nicotinoyl = O=C(c1cccnc1)*; NMeS = CN[C@@H](CO)C(=O)O; Morpholide = C1CN(*)CCO1; X2 = O=C(C=Cc1ccccc1)*; CO = O=C([*:1])[*:2]; Bn = c1ccc(C*)cc1; For = O=C*

Molecular target: T1, LHRH receptors (Rattus norvegicus, UniProt P30969)
T1 construct: Pituitary membranes containing LHRH receptors are prepared in batches from quick-frozen rat pituitaries; tissue Hilltop Labs; host or cells: rat pituitary membranes
T1 sequence (P30969 1-327): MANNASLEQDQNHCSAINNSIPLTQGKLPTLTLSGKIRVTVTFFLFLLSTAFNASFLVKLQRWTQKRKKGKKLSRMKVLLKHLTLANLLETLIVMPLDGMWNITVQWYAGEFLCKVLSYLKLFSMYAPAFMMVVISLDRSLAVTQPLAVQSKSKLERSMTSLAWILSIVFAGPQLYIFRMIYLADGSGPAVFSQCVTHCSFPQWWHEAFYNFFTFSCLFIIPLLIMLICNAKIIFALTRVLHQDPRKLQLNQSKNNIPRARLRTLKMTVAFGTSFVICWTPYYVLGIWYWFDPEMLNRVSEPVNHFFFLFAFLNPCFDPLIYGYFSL
Test: Receptor Binding (radioligand receptor binding assay)
Settings: table 3; rat pituitary membranes, radioiodinated [D-Leu^6 -des Gly^10 ]-LHRH ethyl amide 50 pM, 2 hours at 4° C.; read-out: Receptor Binding pkI (converted)

| SMILES | Ki |
| --- | --- |
| CCNC(=O)[C@@H]1CCCN1C(=O)[C@H](CCCNC(=N)N)NC(=O)[C@H](CC(C)C)NC(=O)[C@@H](Cc1c[nH]c2ccccc12)NC(=O)[C@H](Cc1ccc(O)cc1)NC(=O)[C@H](CO)NC(=O)[C@H](Cc1c[nH]c2ccccc12)NC(=O)CCc1ccc(Cl)cc1 [Compound 98, (3-9)[N-(3-(4-Chlorophenyl)propionyl) -Trp^3 -D-Trp^6 -Pro^9 NHEt]LHRH] ({Propanoyl(3-(4-Cl-Ph))}-WSY[dW]LRP-NHEt) | 0.0525 nM |
| CCNC(=O)[C@@H]1CCCN1C(=O)[C@H](CCCNC(=N)N)NC(=O)[C@H](CC(C)C)NC(=O)[C@@H](Cc1c[nH]c2ccccc12)NC(=O)[C@H](Cc1ccc(O)cc1)NC(=O)[C@H](CO)NC(=O)[C@H](Cc1c[nH]c2ccccc12)NC(=O)C=Cc1ccccc1 [Compound 62, (3-9)[N-Cinnamoyl-Trp^3 -D-Trp^6 -Pro^9 -NHEt]LHRH] (X2-WSY[dW]LRP-NHEt) | 10.5 nM |
| CCNC(=O)[C@@H]1CCCN1C(=O)[C@H](CCCNC(=N)N)NC(=O)[C@H](CC(C)C)NC(=O)[C@@H](Cc1c[nH]c2ccccc12)NC(=O)[C@H](Cc1ccc(O)cc1)NC(=O)[C@H](CO)NC(=O)[C@H](Cc1c[nH]c2ccccc12)NC(=O)C(CC(=O)N1CCOCC1)Cc1cccc2ccccc12 (single isomer, unassigned) [Compound 131] | 0.631 nM |
| CCNC(=O)[C@@H]1CCCN1C(=O)[C@H](CCCNC(=N)N)NC(=O)[C@H](CC(C)C)NC(=O)[C@@H](Cc1c[nH]c2ccccc12)NC(=O)[C@H](Cc1ccc(O)cc1)NC(=O)[C@H](CO)NC(=O)[C@@H](Cc1c[nH]c2ccccc12)NC(=O)[C@H](Cc1ccccc1)NC(=O)N1CCOCC1 [Compound 107, (2 9)[N-(N-alpha-Morpholinocarbonyl)-Phe^2 -D-Trp^3,6 -Pro^9 NHEt]LHRH] ({Morpholide-CO}-F[dW]SY[dW]LRP-NHEt) | 0.257 nM |
| CCNC(=O)[C@@H]1CCCN1C(=O)[C@H](CCCNC(=N)N)NC(=O)[C@H](CC(C)C)NC(=O)[C@@H](Cc1c[nH]c2ccccc12)NC(=O)[C@H](Cc1ccc(O)cc1)NC(=O)[C@H](CO)NC(=O)Cc1ccc(F)cc1 [Compound 74, (4-9)[N-(3-(4-Fluorophenyl)acetyl) -Ser^4 -D-Trp^6 -Pro^9 NHEt]LHRH] ({Phenylacetyl(4-F)}-SY[dW]LRP-NHEt) | 26.3 nM |
| CCNC(=O)[C@@H]1CCCN1C(=O)[C@H](CCCNC(=N)N)NC(=O)[C@H](CC(C)C)NC(=O)[C@@H](Cc1c[nH]c2ccccc12)NC(=O)[C@H](Cc1ccc(O)cc1)NC(=O)[C@H](COCc1ccccc1)NC(=O)Cc1ccc2ccccc2c1 [Compound 12, (4-9)[N-(2-Naphthylacetyl)-Ser^4 (OBzl)-D-Trp^6 -Pro^9 -NHEt]LHRH] ({Acetyl(2-naphthyl)}-S(Bn)Y[dW]LRP-NHEt) | 1.23 nM |
| CCNC(=O)[C@@H]1CCCN1C(=O)[C@H](CCCN=C(N)N)NC(=O)[C@H](CC(C)C)NC(=O)[C@@H](Cc1c[nH]c2ccccc12)NC(=O)[C@H](Cc1ccc(O)cc1)NC(=O)[C@H](CO)N(C)C(=O)[C@@H](Cc1c[nH]c2ccccc12)NC(=O)CCc1ccc(F)cc1 [Compound 121] ({Propanoyl(3-(4-F-phenyl))}-[dW][NMeS]Y[dW]LRP-NHEt) | 0.0955 nM |
| CCNC(=O)[C@@H]1CCCN1C(=O)[C@H](CCCN=C(N)N)NC(=O)[C@H](CC(C)C)NC(=O)[C@@H](Cc1c[nH]c2ccccc12)NC(=O)[C@H](Cc1ccc(O)cc1)NC(=O)[C@H](CO)NC(=O)[C@@H](Cc1c[nH]c2ccccc12)NC(=O)CCc1ccc(Cl)cc1 [Compound 85, (3 9)[N-(3-(4-Chlorophenyl)propionyl)-D-Trp^3,6 -Pro^9 NHEt]LHRH] ({Propanoyl(3-(4-Cl-Ph))}-[dW]SY[dW]LRP-NHEt) | 0.0741 nM |
| CCNC(=O)[C@@H]1CCCN1C(=O)[C@H](CCCNC(=N)N)NC(=O)[C@H](CC(C)C)NC(=O)[C@@H](CC(C)C)NC(=O)[C@H](Cc1ccc(O)cc1)NC(=O)[C@H](CO)NC(=O)[C@H](Cc1c[nH]c2ccccc12)NC(=O)C=Cc1ccccc1 [Compound 63, (3-9)[N-Cinnamoyl-Trp^3 -D-Leu^6 -Pro^9 -NHEt]LHRH] (X2-WSY[dL]LRP-NHEt) | 50.1 nM |
| CCNC(=O)[C@@H]1CCCN1C(=O)[C@H](CCCNC(=N)N)NC(=O)[C@H](CC(C)C)NC(=O)[C@@H](Cc1c[nH]c2ccccc12)NC(=O)[C@H](Cc1ccc(O)cc1)NC(=O)[C@H](CO)NC(=O)[C@@H](Cc1c[nH]c2ccccc12)NC(=O)CCc1ccc(F)cc1 [Compound 91, (3-9)[N-(3-(4-Fluorophenyl)propionyl) -D-Trp^3,6 Pro^9 NHEt]LHRH] ({Propanoyl(3-(4-F-phenyl))}-[dW]SY[dW]LRP-NHEt) | 0.0288 nM |
| CC(C)C[C@H](NC(=O)[C@@H](Cc1cn(C=O)c2ccccc12)NC(=O)[C@H](Cc1ccc(O)cc1)NC(=O)[C@H](CO)NC(=O)[C@@H](Cc1cn(C=O)c2ccccc12)NC(=O)CCc1ccc(F)cc1)C(=O)N[C@@H](CCCNC(=N)N)C(=O)N1CCC[C@H]1C(=O)N[C@H](C)C(N)=O [Compound 123, N-3-(4-Fluorophenyl)propionyl-D-Trp-(N-indole-formyl)-Ser -Tyr-D-Trp(N-indole-formyl)-Leu-Arg-Pro-D-AlaNH2] ({Propanoyl(3-(4-F-phenyl))}-[dW](For)SY[dW](For)LRP[dA]-NH2) | 0.331 nM |
| CCNC(=O)[C@@H]1CCCN1C(=O)[C@H](CCCNC(=N)N)NC(=O)[C@H](CC(C)C)NC(=O)[C@@H](Cc1c[nH]c2ccccc12)NC(=O)[C@H](Cc1ccc(O)cc1)NC(=O)[C@H](CO)NC(=O)[C@H](Cc1c[nH]c2ccccc12)NC(=O)[C@H](Cc1c[nH]cn1)NC(=O)N1CCOCC1 [Compound 109, (2-9)[N-(N-alpha-Morpholinocarbonyl)-His^2 -D-Trp^6 -Pro^9 NHEt]LHRH] ({Morpholide-CO}-HWSY[dW]LRP-NHEt) | 0.316 nM |

Same assay, conditions: table 4; rat pituitary membranes, radioligand 50 pM, 2 hours at 4° C.; read-out: Receptor Binding pkI (converted)

| SMILES | Ki |
| --- | --- |
| CCNC(=O)[C@@H]1CCCN1C(=O)[C@H](CCCN=C(N)N)NC(=O)[C@H](CC(C)C)NC(=O)[C@@H](CCCCNC(=O)c1cccnc1)NC(=O)[C@H](Cc1ccc(O)cc1)N(C)C(=O)[C@H](CO)NC(=O)[C@@H](Cc1c[nH]c2ccccc12)NC(=O)CCc1ccc(F)cc1F [Compound 152, (3-9)[N-(3-(2,4-diFluorophenyl)propionyl) -D-Trp^3 -NMeTyr^5 -D-Lys^6 (N-epsilon-nicotinyl)-Pro^9 NHEt]LHRH] ({Hydrocinnamoyl(2,4-F2)}-[dW]S[NMeY][dK](Nicotinoyl)LRP-NHEt) | 0.0214 nM |
| CC(C)C[C@H](NC(=O)[C@@H](CCCCN)NC(=O)[C@H](Cc1ccc(O)cc1)N(C)C(=O)[C@H](CCCc1ccccc1)NC(=O)[C@@H](Cc1cccc2ccccc12)NC(=O)CCc1ccc(F)cc1)C(=O)N[C@@H](CCCNC(=N)N)C(=O)N1CCC[C@H]1C(=O)N[C@H](C)C(N)=O [Compound 176, (3-10)[N-(3-(4-Fluorophenyl)propionyl)-D-1-Nal^3-hhPhe^4 -NMeTyr^5 -D-Lys^6 -D-Ala^10]LHRH] ({Propanoyl(3-(4-F-phenyl))}-[d1Nal][hhPhe][NMeY][dK]LRP[dA]-NH2) | 2.88 nM |
| CC(C)C[C@H](NC(=O)[C@@H](CO)NC(=O)[C@H](Cc1ccc(O)cc1)N(C)C(=O)[C@H](CO)NC(=O)[C@@H](Cc1cccc2ccccc12)NC(=O)CCc1ccc(F)cc1)C(=O)N[C@@H](CCCNC(=N)N)C(=O)N1CCC[C@H]1C(=O)N[C@H](C)C(N)=O [Compound 181, (3-10)[N-(3-(4-Fluorophenyl)propionyl)-D-1-Nal^3 -NMeTyr^5 -D-Ser^6 -D-Ala^10]LHRH] ({Propanoyl(3-(4-F-phenyl))}-[d1Nal]S[NMeY][dS]LRP[dA]-NH2) | 0.00398 nM |
| CCNC(=O)[C@@H]1CCCN1C(=O)[C@H](CCCNC(=N)N)NC(=O)[C@H](CC(C)C)NC(=O)[C@@H](Cc1ccc(Cl)cc1)NC(=O)[C@H](Cc1ccc(O)cc1)NC(=O)[C@H](CO)NC(=O)[C@@H](Cc1c[nH]c2ccccc12)NC(=O)CCc1ccc(F)cc1 [Compound 149, (3-9)[N-(3-(4-Fluorophenyl)propionyl) -D-Trp3-D-4-Cl-Phe^6 -Pro^9 NHEt]LHRH] ({Propanoyl(3-(4-F-phenyl))}-[dW]SY[dPhe(4-Cl)]LRP-NHEt) | 0.0295 nM |
| CCNC(=O)[C@@H]1CCCN1C(=O)[C@H](CCCNC(=N)N)NC(=O)[C@H](CC(C)C)NC(=O)[C@@H](Cc1c[nH]c2ccccc12)NC(=O)[C@H](Cc1ccc(O)cc1)NC(=O)[C@H](CO)NC(=O)[C@@H]1CCCN1C(=O)CCc1ccc(F)cc1 [Compound 148, (3-9)[N-(3-(4-Fluorophenyl)propionyl) -Pro^3 -D-Trp^6 -Pro^9 NHEt]LHRH] ({Propanoyl(3-(4-F-phenyl))}-PSY[dW]LRP-NHEt) | 0.055 nM |
| CC(C)C[C@H](NC(=O)[C@@H](CO)NC(=O)[C@H](Cc1ccc(O)cc1)N(C)C(=O)[C@H](CO)NC(=O)[C@H](Cc1cccc2ccccc12)NC(=O)CCc1ccc(F)cc1)C(=O)N[C@@H](CCCNC(=N)N)C(=O)N1CCC[C@H]1C(=O)N[C@H](C)C(N)=O [Compound 180, (3-10)[N-(3-(4-Fluorophenyl)propionyl)-1-Nal^3 -NMeTyr^5 -D-Ser^6 -D-Ala^10]LHRH] ({Propanoyl(3-(4-F-phenyl))}-[1Nal]S[NMeY][dS]LRP[dA]-NH2) | 0.0055 nM |
| CC(C)C[C@H](NC(=O)[C@@H](Cc1ccc(O)cc1)NC(=O)[C@H](Cc1ccc(O)cc1)N(C)C(=O)[C@H](CO)NC(=O)[C@@H](Cc1c[nH]c2ccccc12)NC(=O)CCc1ccc(F)cc1)C(=O)N[C@@H](CCCCNC(C)C)C(=O)N1CCC[C@H]1C(=O)N[C@H](C)C(N)=O [Compound 196, (3-10)[N-(3-(4-Fluorophenyl)propionyl)-D-Trp^3 -NMeTyr^5 -D-Tyr^6 -Lys^8 (N-epsilon-isopropyl)-D-Ala^10]LHRH] ({Propanoyl(3-(4-F-phenyl))}-[dW]S[NMeY][dY]L[Lys(iPr)]P[dA]-NH2) | 0.0234 nM |
